Laboratory results from patent US20240247253A1, “PRODUCTION METHOD OF POLYPEPTIDE, TAG, EXPRESSION VECTOR, EVALUATION METHOD OF POLYPEPTIDE, PRODUCTION METHOD OF NUCLEIC ACID DISPLAY LIBRARY, AND SCREENING METHOD” (FUJIFILM Corporation, priority 2021, published 2024).

Legend:
[1] = system: cell-free peptide synthesis system derived from Escherichia coli; test: Cell-free biosynthesis of the integrin binding peptide fusion protein with N-terminal tag, 1 hour reaction, amount measured by ELISA; assay type: biochemical; details: fusion protein SEQ ID NO: 5; for Biosynthesis amount of fusion protein: relative value, control example without tag = 1, 37° C. for 1 hour, average of two measurements
From the text: In the cell-free peptide synthesis system derived from Escherichia coli, the effect of the VKKX tag on the biosynthesis amount of the polypeptide was examined. As a polypeptide to be biosynthesized, an integrin binding peptide containing cysteine and chloroacetyl lysine was selected. In this polypeptide, a thiol group of cysteine and a chloroacetyl group of chloroacetyl lysine spontaneously form a thioether bond to become a cyclic polypeptide.
A fusion protein in which an integrin binding peptide, a Myc tag, and a HiBiT tag were linked in this order was designed. As a spacer, Gly-Gly-Ser was inserted between the integrin binding peptide and the Myc tag and between the Myc tag and the HiBiT tag. The amino acid sequence of this fusion protein is SEQ ID NO: 5, and the base sequence encoding this fusion protein is SEQ ID NO: 6. In SEQ ID NO: 5, the integrin binding peptide ranges to the amino acid at the twelfth position (that is, alanine) from an N-terminal, and the amino acid at eleventh position from the N-terminal is chloroacetyl lysine. The triplet TAG at the positions 31 to 33 from the 5′ terminal of the base sequence set forth in SEQ ID NO: 6 was assigned to the codon of chloroacetyl lysine. The end of the base sequence set forth in SEQ ID NO: 6 is the stop codon TAA.
A base sequence encoding a tagged fusion protein in which methionine, a VKKX tag (any of SEQ ID nOs: 7 to 52), and a fusion protein (SEQ ID NO: 5) were linked in this order was designed. In this base sequence, a base sequence (any of SEQ ID nOs: 53 to 98) encoding a VKKX tag is arranged immediately after the start codon ATG, and a base sequence encoding a fusion protein immediately after the base sequence (SEQ ID NO: 6) encoding the VKKX tag is arranged.
As a control example for evaluating the effect of the VKKX tag, a base sequence in which a base sequence (SEQ ID NO: 6) encoding a fusion protein arranged immediately after the start codon ATG was designed.
In order to translate chloroacetyl lysine which is an unnatural amino acid, a tRNA in which the anticodon was CUA and paired with the UAG codon of mRNA was prepared. This tRNA was aminoacylated with an N-chloroacetyl lysine hosphoro 2′ deoxyribocytidylylriboadenosine (pdCpA) ester. This aminoacyl tRNA is referred to as an Aminoacyl tRNA (1).
(§1) The cell-free biosynthesis of the polypeptide was carried out in a translation solution containing a template DNA, PUREfrex 2.0 (GeneFrontier, PF201-0.25-5), and Aminoacyl tRNA (1). 1.25 μL (62.5 ng) of the template DNA prepared to 50 ng/μL, 2.5 μL of PUREfrex 2.0 Solution I, 0.25 μL of Solution II, 0.5 μL of Solution III, and 0.5 μL of Aminoacyl tRNA (1) were mixed and mixture was subjected to a reaction at 37° ° C. for 1 hour.
The amount of the biosynthesized polypeptide was measured by ELISA. 50 ng of Recombinant Human Integrin αVβ3 (R&D systems, 3050-AV-050) was immobilized in each well of a 96-well plate and blocked with Blocker Casein in PBS (Thermo, 37528), and then a cell-free biosynthesis solution diluted with Can Get Signal Immunoreaction Enhancer Solution I (TOYOBO, NKB-101) containing 5 mmol/L MgCl2 was added thereto, and the mixture was subjected to a reaction at room temperature for 3 hours. After washing with 5 mmol/L MgCl2/0.05% Tween 20-containing phosphate buffered saline (PBS), an anti-Myc antibody (Cell Signaling, 14038S) diluted with Can Get Signal Immunoreaction Enhancer Solution II (TOYOBO, NKB-101) was added thereto, and the mixture was subjected to a reaction at room temperature for 2 hours. After washing with PBS containing 5 mmol/L MgCl2/0.05% Tween 20, Super Signal ELISA Femto Substrate (Thermo, 37075) was added thereto, and the luminescence was measured. The amount of the fusion protein in the cell-free biosynthesis solution was calculated based on a calibration curve created from the fusion protein having a known concentration. The luminescence measurement was performed twice, and the average value of the amounts of the fusion protein was calculated. […]

[2] = system: cell-free peptide synthesis system derived from Escherichia coli; test: Cell-free biosynthesis of the integrin binding peptide fusion protein with tag, reaction time 10 minutes, ELISA; assay type: biochemical; details: relative value, control without tag = 1; reaction time 10 minutes; fusion protein SEQ ID NO: 5; SKIK encoded by SEQ ID NO: 110
Experimental: as §1
The amount of the biosynthesized polypeptide was measured by ELISA. 50 ng of Recombinant Human Integrin αVβ3 (R&D systems, 3050-AV-050) was immobilized in each well of a 96-well plate and blocked with Blocker Casein in PBS (Thermo, 37528), and then a cell-free biosynthesis solution diluted with Can Get Signal Immunoreaction Enhancer Solution I (TOYOBO, NKB-101) containing 5 mmol/L MgCl2 was added thereto, and the mixture was subjected to a reaction at room temperature for 3 hours. After washing with 5 mmol/L MgCl2/0.05% Tween 20-containing phosphate buffered saline (PBS), an anti-Myc antibody (Cell Signaling, 14038S) diluted with Can Get Signal Immunoreaction Enhancer Solution II (TOYOBO, NKB-101) was added thereto, and the mixture was subjected to a reaction at room temperature for 2 hours. After washing with PBS containing 5 mmol/L MgCl2/0.05% Tween 20, Super Signal ELISA Femto Substrate (Thermo, 37075) was added thereto, and the luminescence was measured. The amount of the fusion protein in the cell-free biosynthesis solution was calculated based on a calibration curve created from the fusion protein having a known concentration. The luminescence measurement was performed twice, and the average value of the amounts of the fusion protein was calculated. Table 2-1 and Table 2-2 show relative values of the biosynthesis amounts of respective fusion proteins in a case where the amount of the fusion protein of the control example was set to the reference value 1.
As a comparative control, a SKIK tag represented by SEQ ID NO: 107 was selected. The polypeptide to be biosynthesized is the fusion protein containing the integrin binding peptide, as in Example 1.
Using a template DNA including DNA sequences (SEQ ID NOs: 73 to 98) encoding VKKX tags represented by SEQ ID NOs: 27 to 52 produced in Example 1, and a DNA sequence (SEQ ID NO: 110) encoding a SKIK tag represented by SEQ ID NO: 107 produced in Example 2, the biosynthesis reaction was performed in the same manner as in Example 1 by setting the reaction time to 10 minutes. In the same manner in Example 1, the fusion protein was expressed by the cell-free peptide synthesis system and quantified by ELISA. The measurement was performed twice, and the average value of the amounts of the fusion protein was calculated. […] As control example used in Example 1, the control example of the reference value 1 has a form in which the base sequence (SEQ ID NO: 6) encoding the fusion protein is arranged immediately after the start codon ATG.

Substance	Biosynthesis amount of fusion protein [1]	Biosynthesis amount of fusion protein [2]	increase of biosynthesis amount of the fusion protein ([1]; Example 1, versus control without tag, 1 hour) [times]
SEQ ID NO: 19: VKKX tag, amino acid sequence VKKA (VKKX Tag)	3.01		
SEQ ID NO: 24: VKKX tag, amino acid sequence VKKQ (VKKX Tag)	3.52		
SEQ ID NO: 41: VKKX tag, amino acid sequence VKKTKTKDT (VKKX Tag)	6.27	28.80	
SEQ ID NO: 21: VKKX tag, amino acid sequence VKKC (VKKX Tag)	3.14		
SEQ ID NO: 46: VKKX tag, amino acid sequence VKKTKTKKTK (VKKX Tag)	9.94	23.47	
SEQ ID NO: 37: VKKX tag, amino acid sequence VKKTKTKKD (VKKX Tag)	11.45	19.84	
SEQ ID NO: 9: VKKX tag, amino acid sequence VKKT (VKKX Tag)	5.66		
SEQ ID NO: 40: VKKX tag, amino acid sequence VKKTKTKDK (VKKX Tag)	8.49	10.77	
SEQ ID NO: 44: VKKX tag, amino acid sequence VKKTKTTKT (VKKX Tag)	7.83	7.18	
SEQ ID NO: 12: VKKX tag, amino acid sequence VKKH (VKKX Tag)	5.82		
SEQ ID NO: 26: VKKX tag, amino acid sequence VKKF (VKKX Tag)	3.69		
SEQ ID NO: 50: VKKX tag, amino acid sequence VKKTKTKDKK (VKKX Tag)	7.78	35.42	
SEQ ID NO: 11: VKKX tag, amino acid sequence VKKS (VKKX Tag)	6.05		
SEQ ID NO: 30: VKKX tag, amino acid sequence VKKTKTKK (VKKX Tag)	9.01	24.42	
SEQ ID NO: 28: VKKX tag, amino acid sequence VKKTKTT (VKKX Tag)	6.28	16.65	
SEQ ID NO: 48: VKKX tag, amino acid sequence VKKTKTKTKK (VKKX Tag)	10.47	36.08	
SEQ ID NO: 23: VKKX tag, amino acid sequence VKKY (VKKX Tag)	3.30		
SEQ ID NO: 42: VKKX tag, amino acid sequence VKKTKTKDD (VKKX Tag)	5.35	14.95	

Substance	Biosynthesis amount of fusion protein [1]	Biosynthesis amount of fusion protein [2]	increase of biosynthesis amount of the fusion protein ([1]; Example 1, versus control without tag, 1 hour) [times]
SEQ ID NO: 20: VKKX tag, amino acid sequence VKKD (VKKX Tag)	3.05		
SEQ ID NO: 43: VKKX tag, amino acid sequence VKKTKTTKK (VKKX Tag)	9.45	23.35	
SEQ ID NO: 33: VKKX tag, amino acid sequence VKKTKTTK (VKKX Tag)	6.54	8.17	
SEQ ID NO: 13: VKKX tag, amino acid sequence VKKM (VKKX Tag)	1.94		
SEQ ID NO: 52: VKKX tag, amino acid sequence VKKTKTKTDTT (VKKX Tag)	4.33	9.15	4.3
SEQ ID NO: 38: VKKX tag, amino acid sequence VKKTKTKTK (VKKX Tag)	8.42	16.95	
SEQ ID NO: 39: VKKX tag, amino acid sequence VKKTKTKTT (VKKX Tag)	7.22	7.57	
SEQ ID NO: 51: VKKX tag, amino acid sequence VKKTKTTTKK (VKKX Tag)	6.29	15.28	
SEQ ID NO: 22: VKKX tag, amino acid sequence VKKN (VKKX Tag)	3.17		
SEQ ID NO: 25: VKKX tag, amino acid sequence VKKW (VKKX Tag)	3.52		
SEQ ID NO: 7: VKKX tag, amino acid sequence VKKI (VKKX Tag)	4.40		
SEQ ID NO: 10: VKKX tag, amino acid sequence VKKR (VKKX Tag)	5.75		
SEQ ID NO: 14: VKKX tag, amino acid sequence VKKP (VKKX Tag)	2.23		
SEQ ID NO: 8: VKKX tag, amino acid sequence VKKK (VKKX Tag)	6.15		
SEQ ID NO: 17: VKKX tag, amino acid sequence VKKV (VKKX Tag)	2.90		
SEQ ID NO: 16: VKKX tag, amino acid sequence VKKL (VKKX Tag)	2.71		
SEQ ID NO: 18: VKKX tag, amino acid sequence VKKE (VKKX Tag)	2.94		
SEQ ID NO: 15: VKKX tag, amino acid sequence VKKG (VKKX Tag)	2.39		
